Tests used:
HT 1080 cell [1] = assay: MTT assay, cell survival rate (Example 8); format: cell-based; settings: for cell survival rate (MTT assay): 24 hours
HT 1080 cell [2] = assay: Toxicity at the cell level, cell count at 100 μM (Examples 11, 12); format: cell-based
Procedure: HT 1080 cell was cultured in a 6-cm dish until the cells became 70% confluent, and VST or a VST derivative was added to a concentration of 10, 3, or 1 μM in the absence of glucose (in the glucose-deficient state), and the action thereof was studied.
In the present Example, the VST derivative prepared in Example 1 (the compounds having the chemical structure represented by “Formula 11” as the substituent group R^1 (n=3)) was used as the VST derivative. […] In the present Example, VST or the VST derivative was added at a concentration of 100 μM.
In the present Example, the culture cell was brought into the glucose-deficient state by addition of 2-deoxyglucose.
The three kinds of VST biotin derivatives prepared in Example 7 were used as the VST derivatives. In the present Example, VST or the VST derivative was added to a concentration of 100 μM, and 2-DG, to a concentration of 20 mM.

GRP 78 = assay: Western blot of GRP 78 expression in HT 1080 cell (Examples 6, 7); format: cell-based; settings: glucose-deficient condition, cultured 18 hours, FIGS. 5 to 8
Source text: In Example 6, the action of the VST derivative to inhibit expression of GRP 78 was studied by Western blot method. In the present experiment, the compounds prepared in Example 1 (the compounds having the chemical structure represented by “Formula 11” as the substituent group R^1 (n=3)) was used as the VST derivative.
Expression of GRP 78 is known to induce under glucose-deficient condition. Thus in the present experiment, the action of the VST derivative to induce or inhibit expression of GPR78 was studied both under glucose-deficient condition and also under normal condition.
The experiment was performed generally in the following manner: First, HT 1080 cell (cancer cell) was cultured in RPMI 1640 medium. […] Then, cultured cells were harvested, and GRP 78 expressed was detected by Western blotting with an anti-GRP 78 antibody.
Then, the cell was cultured in a similar manner and condition to those in Example 6, and GRP 78 expressed was detected by Western blotting by using an anti-GRP 78 antibody.

ICR mice = assay: Acute toxicity experiment in mice (Example 13); format: in vivo; settings: male ICR mice, tail vein injection
Procedure: The mice used were 7- to 8-week old male ICR mice (available from Charles River). VST or a VST derivative was administered to each mouse by tail vein injection, and the toxicity thereof was studied. In the present experiment, the VST biotin derivative prepared in Example 7 was used as the VST derivative.

Compound: O=CC[C@@H](O)[C@H](O)[C@H](O)CO [Example 2-DG, 2-deoxyglucose]
- cell survival rate (MTT assay) (HT 1080 cell [1]; 20 mM 2-DG alone): approximately 50%

Compound: versipelostatin [VST]
- cell death (HT 1080 cell [2]; Example 11: HT 1080 cell, glucose-deficient state): cell death
- cell count (HT 1080 cell [2]; Example 11: HT 1080 cell, normal culture environment (glucose present)): significant decrease in cell count
- cell death (HT 1080 cell [2]; Example 12: HT 1080 cell, glucose-deficient state by 2-DG 20 mM, three VST biotin derivatives of Example 7): cell death
- cell count (HT 1080 cell [2]; Example 12: HT 1080 cell, normal culture environment, three VST biotin derivatives of Example 7): significant drop in cell count
- addition amount above which the cell survival rate declined significantly (HT 1080 cell [1]; 2-DG not added, MTT assay): exceeded 25 μM
- cell survival rate (MTT assay) (HT 1080 cell [1]; 2-DG not added, increasing addition amount, derivatives = VST-Biotin, VST-Biotin-C6, VST-Biotin-C12): declined significantly
- cell survival rate (MTT assay) (HT 1080 cell [1]; with 20 mM 2-DG (glucose-deficient state), derivatives = VST-Biotin, VST-Biotin-C6, VST-Biotin-C12): around 30%
- induction of GRP 78 expression (Western blot) (GRP 78): inhibited to some extent
- Number of dead animals (within 24 hours) (ICR mice; 6 mg/kg): 0
- Number of dead animals (within 24 hours) (ICR mice; 9 mg/kg): 0
- Number of dead animals (within 24 hours) (ICR mice; 12 mg/kg): 1
- Number of dead animals (within 24 hours) (ICR mice; 15 mg/kg): 5
- Number of dead animals (within 24 hours) (ICR mice; 18 mg/kg): 4
- Number of dead animals (within 24 hours) (ICR mice; 21 mg/kg): 4
- Number of dead animals (within 24 hours) (ICR mice; 30 mg/kg): 4
- dosage leading to death of all mice (ICR mice; summary of Table 1): more than 18 mg/kg
